Literature values, collected in article PMC8356818 (Chemical Science, 2021).

Experiments:
[1] = direct stopped-flow measurements
[2] = H4qp2 ligand, 25 °C
[3] = not given; remark: listed apart in the source

C[C@@H]1N[C@@H]2CCCC[C@H]2NCCN[C@@H]2CCCC[C@H]2N[C@@H](C)c2cccc1n2.[Cl-].[Cl-].[Mn+2] [Complex M40401]
pMn (stability in water): 4.7
catalytic rate [1]: approximately 1.5 × 10^9 M^−1 s^−1

Oc1ccc(O)c(CN(CCN(Cc2ccccn2)Cc2cc(O)ccc2O)Cc2ccccn2)c1 [Complex H4qp2, N,N′-bis(2,5-dihydroxybenzyl)-N,N′-bis(2-pyridinylmethyl)-1,2-ethanediamine]
pKL1 ([2]; KL1 = [(H5qp2)^+][H^+]/[(H6qp2)^2+]): 4.47 (±0.08)
pKL2 ([2]; KL2 = [(H4qp2)][H^+]/[(H5qp2)^+]): 7.18 (±0.03)

Mn^IIBr8TM-4-PyP^4+
Mn estimated to be lost (release of free manganese) (neutral pH): approximately 30%
estimated log kcat if the catalyst were fully intact [3]: exceed 8.67
log kcat ([3]; determined by the cytochrome c assay): 8.34
